The values below come from patent US5162336A, “Tetrahydro-pyrido-indoles as cholecystokinin and gastrin antagonists” (Rhone-Poulenc Rorer Pharmaceuticals Inc., priority 1990, dated 1992).

One may read the IC50 as the concentration that inhibits the measured activity by half.

The test deals with T1, Gastrin receptor (Cavia porcellus, UniProt H0VZC5).
T1 construct: The fundic mucosa is gently scraped off the submucosa; from tissue; host or cells: gastric glands from fundic mucosa of Hartley guinea pig
T1 sequence (H0VZC5 1-426): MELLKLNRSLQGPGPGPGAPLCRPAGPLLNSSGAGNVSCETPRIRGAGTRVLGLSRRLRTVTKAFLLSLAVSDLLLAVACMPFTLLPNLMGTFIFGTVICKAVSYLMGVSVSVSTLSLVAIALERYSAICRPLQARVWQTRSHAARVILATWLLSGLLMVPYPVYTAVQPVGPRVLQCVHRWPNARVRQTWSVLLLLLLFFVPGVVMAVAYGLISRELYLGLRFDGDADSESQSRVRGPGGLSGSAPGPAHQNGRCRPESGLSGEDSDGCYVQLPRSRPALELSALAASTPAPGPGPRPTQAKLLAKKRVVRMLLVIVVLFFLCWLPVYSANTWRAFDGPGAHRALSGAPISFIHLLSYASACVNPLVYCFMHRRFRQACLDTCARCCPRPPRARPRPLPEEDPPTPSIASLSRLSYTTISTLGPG
Briefly: Gastrin receptor binding assay (displacement of 125I-(Leu-15)-Gastrin from guinea pig fundic glands). Set-up: species or system guinea pig (Hartley Strain). The following applies: guinea pig fundic mucosa glands, 25° C., 30 min, read-out: In vitro Binding Data IC50 Gastrin. On the procedure: (a) Phosphate Buffered Saline (PBS): 8.743 g NaCl, 523 mg K2 HPO4 and 76.8 mg NaH2 PO4 is dissolved in 1.0 liter of deionized water and the pH of the solution is adjusted to 7.3 with 5N NaOH.
(b) Buffer A: While adding Basal Medium Eagle (BME) containing Earle's Salts, L-glutamine and 25 mM HEPES, 3 liters of deionized water is stirred, followed by the addition and dissolution of […] of sodium bicarbonate. The solution is then equilibrated with 95% O2 /5% CO2 gas followed by titration to a pH of 7.4 with NaOH.
(c) Buffer B: 18.75 mg of collagenase and […] of BSA is dissolved in 25 ml of Buffer A.
(d) Buffer C: 0.3 g of BSA is dissolved in 300 ml of Buffer A.
(e) 6.25 mg Bacitracin is dissolved in 25 ml of Buffer A.
(f) ^125 I-(Leu-15)-Gastrin: 100 microcurie dissolved in 2.0 ml of Buffer A to make 50 microcurie/ml.
(g) ^125 I-(15-methionine)-Human Gastrin: 50 microcurie/ml.
(h) (Leu 15)-Gastrin: 5.2 mg of (Leu-15)- Gastrin is dissolved in 10 ml of Buffer A. At the time of assay 1:10 dilution is made and 10 μl assay tube is used.
A guinea pig (Hartley Strain) weighing 150-200 grams, is sacrificed by CO2 asphyxiation and the stomach immediately excised, cut along the greater curvature, cleaned out and immediately immersed in a beaker containing cold PBS, pH 7.3, to insure thorough cleaning. The fundic mucosa is gently scraped off the submucosa and added to a preweighed 50 ml plastic centrifuge tube containing 30 ml of cold Buffer A. The weight of the plastic centrifuge tube containing the buffer is then subtracted from the combined weight of the mucosa and the buffer-containing tube to give the weight of the mucosa. The weight of the mucosa thus determined is recorded for later calculations.
The mucosa is then washed twice in Buffer A. After the final wash, the tissue is minced and is placed in a 100-ml glass beaker containing about 1.0 ml of Buffer A, and washed twice again by repeated centrifugation at 50×g for 5 minutes each and aspiration of supernatant. The washed tissue fragments are then added to a glass Erlenmeyer flask containing 25 ml of Buffer B and incubated in a Dubnoff shaking water bath at 37° C. for 30 minutes in a 95% O2 - 5% CO2 atmosphere. After the incubation, the digested tissue fragments in the Collegenase-buffer solution are triturated, filtered through a 200-micron nylon mesh and centrifuged at 50×g for 5 minutes. The supernatant is aspirated and discarded, the tissue washed 2× in Buffer C, resuspended in same buffer, incubated in a 37° C. water bath in an atmosphere of 95% O2 - 5% CO2 for 5 minutes, and centrifuged. The pelleted glands are suspended in Buffer D at a desired concentration of 2x10^5 glands/ml to use in the receptor binding assay.
Six minisorp tubes (16×100 mm) are serially marked and divided into two groups thus: tubes #1, #2, and #3 are marked "T" for "Totals" and tubes #4, #5, and #6 are marked "NS" for "Non-Specifics." Into each of the six tubes are added 220 μl of prepared glands in Buffer D; 20 μl of Buffer A in tubes #1, #2, and #3; 10 μl, in tubes #4, #5 and #6; (10μ of (Leu-15)-Gastrin (25 μM) in tubes #4, #5, and #6. The six tubes are then transferred immediately to a 25° C. water bath and challenged each with 10 μl ^125 I-(Leu-15)-Gastrin diluted as per calculation. The tubes are then covered with a gas hood connected to a 95% O2 - 5% CO2 gas source and mechanically agitated in a shaker for 30 minutes.
At the end of the incubation period, the assay mixtures are each filtered through a Whatman glass fiber filter B on a Brandel tissue harvester and washed twice with Buffer A. The filters are pre-soaked in Buffer C before use. The filter strips are removed after the final wash and individual filters counted in a Gamma Counter. The counts from the "Non-Specific" tubes are then averaged and subtracted from the average "Totals" to give the Specific Counts. […]
On to `NC(=O)[C@H](CC(=O)O)NC(=O)C1(NC(=O)[C@H]2Cc3c([nH]c4ccccc34)CN2C(=O)Nc2ccc(Cl)c(Cl)c2)CCCC1` [Example 26], for which the IC50 worked out at 1.3 µM.

Regarding `CC(C)C[C@H](NC(=O)[C@H]1Cc2c([nH]c3ccccc23)CN1C(=O)Nc1ccc(Cl)c(Cl)c1)C(=O)NCCC(=O)O` [Example 27], the IC50 stood at 0.41 µM.

In the case of `CC(C)C[C@H](NC(=O)[C@H]1Cc2c([nH]c3ccccc23)CN1C(=O)Nc1ccc(Cl)c(Cl)c1)C(=O)NCC(N)=O` [Example 28], the IC50 was found to be 0.91 µM.

Turning to `Cc1cccc(NC(=O)N2Cc3[nH]c4ccccc4c3C[C@@H]2C(=O)N[C@@H](CC(C)C)C(N)=O)c1` [Example 39, N-[(3R)-2-(3-methylphenylcarbamoyl)-1,2,3,4-tetrahydro-9H-pyrido[3,4-b]indole-3-carboxy]-L-leucinamide], the IC50 was 0.23 µM.

Take `CC(C)C[C@H](NC(=O)[C@H]1Cc2c([nH]c3ccccc23)CN1)C(=O)N[C@@H](CC(=O)OCc1ccccc1)C(N)=O` [Example 40]: the IC50 came to 6 µM.

Turning to `Cc1cccc(NC(=O)N2Cc3[nH]c4ccccc4c3C[C@@H]2C(=O)N[C@@H](CC(C)C)C(=O)N[C@@H](Cc2ccccc2)C(N)=O)c1` [Example 42], the IC50 turned out to be 10 µM.

For the molecule `CCOC(=O)c1ccc(NC(=O)[C@H]2Cc3c([nH]c4ccccc34)CN2C(=O)Nc2cccc(C)c2)cc1` [Example 43], the IC50 stood at 30 µM.

Regarding `Cc1cccc(NC(=O)N2Cc3[nH]c4ccccc4c3C[C@@H]2C(=O)N2CCC[C@H]2C(=O)N[C@@H](CC(=O)O)C(N)=O)c1` [Example 44, N-[(3R)-2-(3-methylphenylcarbamoyl)-1,2,3,4-tetrahydro-9H-pyrido[3,4-b]indole-3-carboxyl]-L-prolyl-L-aspartic acid amide], the IC50 was found to be 2.2 µM.

On to `Cc1cccc(NC(=O)N2Cc3[nH]c4ccccc4c3C[C@@H]2C(=O)N[C@H](CC(C)C)C(=O)N[C@H](CC(=O)O)C(N)=O)c1` [Example 45], for which the IC50 is greater than 10 µM.

Consider `CCCCCN(CCCCC)C(=O)[C@H](CC(=O)O)NC(=O)[C@H]1Cc2c([nH]c3ccccc23)CN1C(=O)Nc1cccc(C)c1` [Example 46, N-[(3R)-2-(3-methylphenylcarbamoyl)-1,2,3,4-tetrahydro-9H-pyrido[3,4-b]indole-3-carboxyl]-L-aspartic acid dipentyl amide], for which the IC50 was 2.6 µM.

Regarding `Cc1cccc(NC(=O)N2Cc3[nH]c4ccccc4c3C[C@H]2C(=O)N[C@H](CC(C)C)C(=O)N[C@H](CC(=O)O)C(N)=O)c1` [Example 49], the IC50 was found to be 0.9 µM.

Take `Cc1cccc(NC(=O)N2Cc3[nH]c4ccccc4c3C[C@@H]2C(=O)N[C@@H](CC(C)C)C(=O)N[C@@H](CC(N)=O)C(=O)O)c1` [Example 50]: the IC50 came out at 12 µM.

With `Cc1cccc(NC(=O)N2Cc3[nH]c4ccccc4c3C[C@@H]2C(=O)N[C@@H](CC(C)C)C(=O)N[C@H](CC(=O)O)C(N)=O)c1` [Example 51, N-[(3R)-2-(3-methylphenylcarbamoyl)-1,2,3,4-tetrahydro-9H-pyrido[3,4-b]indole-3-carboxyl]-L-leucyl-D-aspartic acid amide], the IC50 came out at 17 µM.

For the molecule `Cc1cccc(NC(=O)N2Cc3[nH]c4ccccc4c3C[C@H]2C(=O)N[C@H](CC(C)C)C(=O)N[C@@H](CC(=O)O)C(N)=O)c1` [Example 52], the IC50 is greater than 30 µM.

For the molecule `Cc1cccc(NC(=O)N2Cc3[nH]c4ccccc4c3C[C@@H]2C(=O)N(C)[C@@H](CC(C)C)C(=O)N[C@@H](CC(=O)O)C(N)=O)c1` [Example 53, N-[(3R)-2-(3-methylphenylcarbamoyl)-1,2,3,4-tetrahydro-9H-pyrido[3,4-b]indole-3-carboxyl]N'-methyl-L-leucine-L-aspartic acid amide], the IC50 amounted to 6 µM.

For `Cc1cccc(C(=O)N2Cc3[nH]c4ccccc4c3C[C@@H]2C(=O)N[C@@H](CC(C)C)C(=O)N[C@@H](CC(=O)O)C(N)=O)c1` [Example 54], the IC50 came to 6.8 µM.

As to `CC(C)C[C@H](NC(=O)[C@H]1Cc2c([nH]c3ccccc23)CN1C(=O)Nc1ccc(Cl)cc1)C(=O)N[C@@H](CC(=O)O)C(N)=O` [Example 55, N-[(3R)-2-(4-chlorophenylcarbamoyl)-1,2,3,4-tetrahydro-9H-pyrido[3,4-b]indole-3-carboxyl]-L-leucyl-L-asartic acid amide], the IC50 amounted to 3.3 µM.

Turning to `Cc1cccc(NC(=O)N2Cc3[nH]c4ccccc4c3C[C@@H]2C(=O)NCC(=O)N[C@@H](CC(=O)O)C(N)=O)c1` [Example 56, N-[(3R)-2-(3-methylphenylcarbamoyl)-1,2,3,4-tetrahydro-9H-pyido[3,4-b]indole-3-carboxyl]glycyl-L-aspartic acid amide], the IC50 was greater than 30 µM.

In the case of `Cc1cccc(NC(=O)N2Cc3[nH]c4ccccc4c3C[C@@H]2C(=O)N[C@H](CC(C)C)C(=O)N[C@@H](CC(=O)O)C(N)=O)c1` [Example 57, N-[(3R)-2-(3-methylphenylcarbamoyl)-1,2,3,4-tetrahydro-9H-pyrido[3,4-b]indole-3-carboxyl]-D-leucyl-L-aspartic acid amide], the IC50 came to 22 µM.

As for `Cc1cccc(NC(=O)N2Cc3[nH]c4ccccc4c3C[C@@H]2C(=O)N[C@@H](C)C(=O)N[C@@H](CC(=O)O)C(N)=O)c1` [Example 58], the IC50 amounted to 18 µM.

For the molecule `CC(C)C[C@H](NC(=O)[C@H]1Cc2c([nH]c3ccccc23)CN1C(=O)Nc1cc(Cl)cc(Cl)c1)C(=O)N[C@@H](CC(=O)O)C(N)=O` [Example 59, N-[(3R)-2-(3,5-dichlorophenylcarbamoyl)-1,2,3,4-tetrahydro-9H-pyrido[3,4-b]indole-3-carboxyl]-L-leucyl-L-aspartic acid amide], the IC50 is 2 µM.

For `Cc1cc(C)cc(NC(=O)N2Cc3[nH]c4ccccc4c3C[C@@H]2C(=O)N[C@@H](CC(C)C)C(=O)N[C@@H](CC(=O)O)C(N)=O)c1` [Example 60, N-[(3R)-2-(3,5-dimethylphenylcarbamoyl)-1,2,3,4-tetrahydro-9H-pyrido[3,4-b]indole-3-carboxyl]-L-leucyl-L-aspartic acid amide], the IC50 is 15 µM.

`COc1cccc(NC(=O)N2Cc3[nH]c4ccccc4c3C[C@@H]2C(=O)N[C@@H](CC(C)C)C(=O)N[C@@H](CC(=O)O)C(N)=O)c1` [Example 61]: the IC50 stood at 6.4 µM.

For `CC(C)C[C@H](NC(=O)[C@H]1Cc2c([nH]c3ccccc23)CN1C(=O)Nc1ccc2ccccc2c1)C(=O)N[C@@H](CC(=O)O)C(N)=O` [Example 62], the half-inhibitory concentration (IC50) came to 1.2 µM.

On to `CC(C)C[C@H](NC(=O)[C@H]1Cc2c([nH]c3ccccc23)CN1C(=O)Nc1cccc(C(F)(F)F)c1)C(=O)N[C@@H](CC(=O)O)C(N)=O` [Example 63], for which the IC50 was found to be 4.1 µM.

On to `Cc1cccc(NC(=O)N2Cc3[nH]c4ccccc4c3C[C@@H]2C(=O)N[C@@H](COCc2ccccc2)C(=O)N[C@@H](CC(=O)O)C(N)=O)c1` [Example 64], for which the IC50 amounted to 5.3 µM.
